# Data as given in publication PMC11220827 (Frontiers in Pharmacology, 2024).
# pIC50: −log10 of the molar value. Like-named read-outs stand apart in the source and are kept apart here.
# Columns and labels:
# HepG2 cells [1] = experiment: cells; assay type: cell-based; conditions: for AC50: Homo sapiens, HepG2, 24 h
# MAO-A = target: T1, MAO-A (Rattus norvegicus, UniProt P21396); experiment: Pharmacology profiling: MAO-A (antagonist RL); assay type: binding
# T1 sequence (P21396 1-526): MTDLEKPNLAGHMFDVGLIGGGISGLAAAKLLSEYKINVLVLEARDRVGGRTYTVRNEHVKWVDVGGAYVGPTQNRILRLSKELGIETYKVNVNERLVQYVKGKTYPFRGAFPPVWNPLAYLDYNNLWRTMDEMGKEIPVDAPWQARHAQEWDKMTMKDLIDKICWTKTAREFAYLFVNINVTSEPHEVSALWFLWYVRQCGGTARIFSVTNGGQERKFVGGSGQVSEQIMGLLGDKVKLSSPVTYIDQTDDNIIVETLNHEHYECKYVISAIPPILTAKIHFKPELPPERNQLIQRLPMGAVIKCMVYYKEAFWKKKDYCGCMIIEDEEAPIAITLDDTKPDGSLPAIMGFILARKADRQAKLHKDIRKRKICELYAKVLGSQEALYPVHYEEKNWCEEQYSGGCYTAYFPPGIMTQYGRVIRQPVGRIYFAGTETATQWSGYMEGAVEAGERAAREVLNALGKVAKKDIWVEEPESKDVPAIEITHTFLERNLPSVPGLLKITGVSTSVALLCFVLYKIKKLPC
# Excerpt: (§10) targets. The list of targets included the original panel of 44 targets (including receptors, ion channels,
# (§11) transporters and enzymes) recommended by 4 major pharmaceutical companies as significant
# (§12) reasoned to link to pathological effects. Results showing an inhibition or stimulation higher than 50%
# (§13) are considered to represent significant effects (i.e. a “hit”).
# (§14) and 50% are indicative of weak to moderate effects and results showing an inhibition (or stimulation)
# (§15) around the control level. For several targets, additional concentration effect assays were conducted to
# (§16) determine the potency (IC50). The concentrations tested (in duplicate) ranged between 30 nM and 100
# 5-HT2B (h) = 5-HT2B (h) (Homo sapiens, UniProt P41595); experiment: Pharmacology profiling: 5-HT2B (h) (agonist RL); assay type: binding; conditions: read-out: 5-HT2B (h) (agonist RL): % inhibition @10 µM
# Excerpt: (§1) Cosmetics Europe’s Systemic Toxicity Taskforce (SysTox-TF) has extended the list of targets in an in vitro screen originally described by [Bowes et al. (2012)] to assess the effects of cosmetic chemicals on target molecules. The approach was based on the knowledge that various targets of pharmacological interest have been linked to human adverse drug reactions, and that screening of these has helped the pharma industry in identifying drug candidates with acceptable human safety profiles ([Bowes et al., 2012]; [Scott et al., 2022]). The methods used by the pharma industry were adapted for use in cosmetic chemical NGRA. A final list of 83 target assays were considered suitable for cosmetic chemical safety testing (see Supplementary Materials S1.7). The targets were receptors, ion channels, transporters and enzymes identified by the pharma industry as linked to human adverse drug reactions, supplemented by additional targets that have been reasoned to be linked to systemic toxicities of chemicals in animals. Chemicals that are flagged for a target are tested in follow-up dose-response assays to establish potency of the interaction. […]. [Valentin et al., 2018]; [Dodson et al., 2021]). […].
# (§2) assay’s reference compound was set to 100%. For antagonist assays, the basal signal (exposure to fixed concentration of agonist only) was set to 100%. Activity of the samples was scaled accordingly, […]
# (§3) Using these graphs, lowest […]
# (§4) compound activity for antagonist assays.
# (§5) S1.7. Pharmacology profiling assays […]
# (§6) reasoned to link to pathological effects. […]
# (§7) around the control level. […]
# (§8) determine the potency (IC50).
# (§9) Supplementary Table S4 Pharmacology profiling assay panel. […]
# Adenosine A2A (h) = Adenosine A2A (h) (Homo sapiens, UniProt P29274); experiment: Pharmacology profiling: Adenosine A2A (h) (agonist RL); assay type: binding; conditions: read-out: Adenosine A2A (h) (agonist RL): % inhibition @10 µM
# Excerpt: as §1, §2, §3, §4, §5, §6, §7, §8, §9
# COX1 (h) = COX1 (h) (Homo sapiens, UniProt P23219); experiment: Pharmacology profiling: COX1 (h); assay type: biochemical; conditions: read-out: COX1 (h): % inhibition @10 µM
# Excerpt: as §10, §11, §12, §13, §14, §15, §16
# PDE4D2 (h) = PDE4D2 (h) (Homo sapiens, UniProt Q08499); experiment: Pharmacology profiling: PDE4D2 (h) (phosphodiesterase 4D); assay type: biochemical; conditions: read-out: PDE4D2 (h) (phosphodiesterase 4D): % inhibition @10 µM
# Excerpt: as §1, §2, §3, §4, §5, §6, §7, §8, §9
# HepG2 cells [2] = experiment: Transcriptomics (TempO-Seq, BMD analysis) in HepG2 cells; assay type: cell-based, human
# Protocol: (§17) These differed with respect to the number of genes passing all filters in each pathway (3 versus 5 genes). […] Therefore, we captured pathways which fulfilled both criteria.
# (§18) HepG2 (human hepatoblastoma) , MCF-7 (human breast adenocarcinoma) cells supplied by
# (§19) Public Health England European Collection of Cell Cultures (ECACC, Salisbury, UK). Differentiated
# (§20) HepaRG cells (HPR116, Lot HPR116239 -TA08) were from Biopredic International (Rennes, France).
# (§21) Test chemicals were prepared in DMSO as serial dilutions, resulting in concentrations in media of
# (§22) biological replicates were treated with the appropriate dose of co mpound for 24 h prior to cell lysis.
# (§23) Biospyder human whole genome panel version 1 (https://biospyder.com).
# Gene normalization and analysis
# (§24) expression values for each probe were normalized by applying DESEQ2 normalization. A pseudo-
# (§25) read-count of 1.0 was added to each normalized expression value, and then the values were log2
# (§26) transformed . Analyses performed included Gene and Pathway, Dose Response and Network
# (§27) monotonic increasing/decreasing trend were those which confirmed to the criteria : William’s trend
# (§28) Those genes were then used in categorical (pathway) analysis for the Gene Ontology (GO) terms and
# (§29) REACTOME pathways. Significant dose responsive pathways were determined according to : Fisher’s
# HepaRG cells = experiment: Transcriptomics (TempO-Seq, BMD analysis) in HepaRG cells; assay type: cell-based
# Protocol: as §17, §18, §19, §20, §21, §22, §23
# Gene normalization and analysis
# as §24, §25, §26, §27, §28, §29
# [3] = assay type: in vitro ADME; conditions: human, 24 h
# Excerpt: Additional information was required to determine whether an adjustment factor was needed to account for a difference in the absorption of daidzein after topical application and whether the absorption was impacted by the use of the intended (body lotion base) formulation. […]. […] […]. The results of this study are described in detail by [Géniès et al. (2024)] and are summarized here.
# Thyroid pathway = tested on: Thyroid pathway; set-up: method as in ToxCast; conditions: ref ToxCast; cited from earlier work; further: key: Pos = positive result; Neg = negative result; Inc = uncertain/inconclusive result
# TSHR = tested on: TSHR; set-up: method as in ToxCast; conditions: ref ToxCast; cited from earlier work; further: key: Pos = positive result; Neg = negative result; Inc = uncertain/inconclusive result
# Thyroid peroxidase = tested on: Thyroid peroxidase; set-up: method as in ToxCast; conditions: ref ToxCast, cited from earlier work; on Thyroid pathway: Thyroid peroxidase, Call: key: Pos = positive result; Neg = negative result; Inc = uncertain/inconclusive result
# Deiodinase = tested on: Deiodinase; set-up: method as in ToxCast; conditions: ref ToxCast, cited from earlier work; on Thyroid pathway: Deiodinase (Not AOP), Call: key: Pos = positive result; Neg = negative result; Inc = uncertain/inconclusive result
# [4] = HepG2, 24 h, pathway differs per chemical
# [5] = HepaRG, 24 h, pathway differs per chemical
# COX1 (h), sequence (P23219 24-599): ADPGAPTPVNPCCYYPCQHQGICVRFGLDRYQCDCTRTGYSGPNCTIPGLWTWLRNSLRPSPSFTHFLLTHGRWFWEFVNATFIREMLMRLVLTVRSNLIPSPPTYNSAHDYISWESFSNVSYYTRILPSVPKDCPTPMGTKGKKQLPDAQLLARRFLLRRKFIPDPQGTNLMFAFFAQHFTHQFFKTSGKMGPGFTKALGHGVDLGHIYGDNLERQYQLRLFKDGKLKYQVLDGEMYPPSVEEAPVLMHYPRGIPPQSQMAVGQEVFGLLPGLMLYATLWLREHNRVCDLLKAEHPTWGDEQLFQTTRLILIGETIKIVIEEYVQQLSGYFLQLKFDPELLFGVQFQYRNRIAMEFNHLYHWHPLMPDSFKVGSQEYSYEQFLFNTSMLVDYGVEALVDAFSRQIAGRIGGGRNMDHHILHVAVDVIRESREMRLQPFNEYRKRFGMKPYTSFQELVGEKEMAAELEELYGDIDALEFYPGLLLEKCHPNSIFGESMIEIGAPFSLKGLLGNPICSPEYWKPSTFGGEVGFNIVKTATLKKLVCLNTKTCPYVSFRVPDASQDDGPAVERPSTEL
# Adenosine A2A (h), sequence (P29274 whole entry): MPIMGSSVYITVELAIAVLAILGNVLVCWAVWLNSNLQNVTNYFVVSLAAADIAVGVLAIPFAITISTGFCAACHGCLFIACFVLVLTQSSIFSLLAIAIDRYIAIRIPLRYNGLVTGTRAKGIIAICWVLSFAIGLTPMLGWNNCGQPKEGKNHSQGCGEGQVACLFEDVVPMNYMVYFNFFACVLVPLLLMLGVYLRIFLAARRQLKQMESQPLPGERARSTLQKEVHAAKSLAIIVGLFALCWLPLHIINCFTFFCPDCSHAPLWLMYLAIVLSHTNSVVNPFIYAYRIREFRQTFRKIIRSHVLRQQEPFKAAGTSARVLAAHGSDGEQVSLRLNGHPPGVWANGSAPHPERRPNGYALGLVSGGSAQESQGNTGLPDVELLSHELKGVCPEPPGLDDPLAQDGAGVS
# 5-HT2B (h), sequence (P41595 whole entry): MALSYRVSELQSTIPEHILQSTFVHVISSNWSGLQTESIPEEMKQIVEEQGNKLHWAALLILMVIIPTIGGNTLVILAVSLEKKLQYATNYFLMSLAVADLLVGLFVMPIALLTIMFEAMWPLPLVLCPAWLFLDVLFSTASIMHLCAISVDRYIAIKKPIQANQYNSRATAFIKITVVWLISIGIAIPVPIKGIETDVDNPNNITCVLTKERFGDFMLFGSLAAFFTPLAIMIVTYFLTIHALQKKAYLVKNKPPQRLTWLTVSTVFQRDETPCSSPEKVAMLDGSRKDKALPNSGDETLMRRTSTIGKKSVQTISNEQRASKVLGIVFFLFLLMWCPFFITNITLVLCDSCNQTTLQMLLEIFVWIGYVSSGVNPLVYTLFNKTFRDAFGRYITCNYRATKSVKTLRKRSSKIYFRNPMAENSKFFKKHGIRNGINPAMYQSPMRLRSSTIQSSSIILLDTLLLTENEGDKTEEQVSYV
# PDE4D2 (h), sequence (Q08499 303-809): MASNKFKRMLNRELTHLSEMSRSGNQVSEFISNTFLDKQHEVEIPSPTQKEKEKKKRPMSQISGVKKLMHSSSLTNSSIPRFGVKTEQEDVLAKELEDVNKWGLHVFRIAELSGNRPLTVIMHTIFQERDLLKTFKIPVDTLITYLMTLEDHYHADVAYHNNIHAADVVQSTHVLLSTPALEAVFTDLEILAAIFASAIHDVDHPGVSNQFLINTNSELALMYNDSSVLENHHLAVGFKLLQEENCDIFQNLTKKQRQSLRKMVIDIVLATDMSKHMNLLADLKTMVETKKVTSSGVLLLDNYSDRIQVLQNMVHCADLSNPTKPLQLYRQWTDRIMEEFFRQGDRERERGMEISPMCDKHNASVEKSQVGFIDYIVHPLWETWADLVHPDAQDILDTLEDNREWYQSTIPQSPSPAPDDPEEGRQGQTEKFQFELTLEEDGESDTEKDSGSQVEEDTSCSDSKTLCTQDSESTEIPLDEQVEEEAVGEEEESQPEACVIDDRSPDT
compound,measurement,setting,value
"O=c1c(-c2ccc(O)cc2)coc2cc(O)ccc12 [Daidzein, DAIDZEIN]",Apoptosis & necrosis: cell membrane permeability: Effect,HepG2 cells [1],decrease
same,AC50,HepG2 cells [1]; read-out: Apoptosis & necrosis: caspase 3/7: AC50,> 100 µM
same,AC50,HepG2 cells [1]; read-out: Apoptosis & necrosis: cell membrane permeability: AC50,> 100 µM
same,AC50,HepG2 cells [1]; read-out: Cellular ATP: AC50,> 100 µM
same,AC50,HepG2 cells [1]; read-out: ER stress panel 1: ER integrity: AC50,> 100 µM
same,AC50,HepG2 cells [1]; read-out: Inflammation & pH: HIF1α: AC50,> 100 µM
same,AC50,HepG2 cells [1]; read-out: Inflammation & pH: intracellular pH: AC50,> 100 µM
same,AC50,HepG2 cells [1]; read-out: Mitochondrial mass: AC50,> 100 µM
same,AC50,HepG2 cells [1]; read-out: Mitochondrial membrane potential: AC50,55.3 µM
same,AC50,HepG2 cells [1]; read-out: Nuclear size: AC50,> 100 µM
same,AC50,HepG2 cells [1]; read-out: Osmotic & heat shock: NFAT: AC50,> 100 µM
same,AC50,HepG2 cells [1]; read-out: Osmotic & heat shock: hsp70: AC50,> 25 µM
same,AC50,HepG2 cells [1]; read-out: Oxidative stress: HMOX1: AC50,77.6 µM
same,AC50,HepG2 cells [1]; read-out: Oxidative stress: NRF2: AC50,> 100 µM
same,Apoptosis & necrosis: caspase 3/7: MEC,"HepG2 cells [1]; human, 24 h",36.9 µM
same,Apoptosis & necrosis: cell membrane permeability: MEC,"HepG2 cells [1]; human, 24 h",51.5 µM
same,"Cell stress LOEC, ↓ in mitochondrial membrane potential","HepG2 cells [1]; human, 24 h",10.8 µM
same,Cellular ATP: MEC,"HepG2 cells [1]; human, 24 h",89.4 µM
same,ER stress panel 1: ER integrity: MEC,"HepG2 cells [1]; human, 24 h",82.6 µM
same,Inflammation & pH: HIF1α: MEC,"HepG2 cells [1]; human, 24 h",32.3 µM
same,Inflammation & pH: intracellular pH: MEC,"HepG2 cells [1]; human, 24 h",26.3 µM
same,Mitochondrial mass: MEC,"HepG2 cells [1]; human, 24 h",25.9 µM
same,Mitochondrial membrane potential: MEC,"HepG2 cells [1]; human, 24 h",10.8 µM
same,Nuclear size: MEC,"HepG2 cells [1]; human, 24 h",69.2 µM
same,Osmotic & heat shock: NFAT: MEC,"HepG2 cells [1]; human, 24 h",25.0 µM
same,Osmotic & heat shock: hsp70: MEC,"HepG2 cells [1]; human, 24 h",3.3 µM
same,Oxidative stress: HMOX1: MEC,"HepG2 cells [1]; human, 24 h",44 µM
same,Oxidative stress: NRF2: MEC,"HepG2 cells [1]; human, 24 h",30.4 µM
same,Phospholipidosis: MEC,"HepG2 cells [1]; human, 24 h",14.2 µM
same,Steatosis: MEC,"HepG2 cells [1]; human, 24 h",77.4 µM
same,pIC50,MAO-A,5.04
same,inhibition at 10 µM,MAO-A; read-out: MAO-A (antagonist RL): % inhibition @10 µM,49.6%
same,inhibition at 10 µM,5-HT2B (h),44.1%
same,inhibition at 10 µM,Adenosine A2A (h),20.5%
same,inhibition at 10 µM,COX1 (h),44.7%
same,inhibition at 10 µM,PDE4D2 (h),0.04%
same,"Lowest median BMD, 3 genes passing all filters",HepG2 cells [2]; [4],16.2 µM
same,"Lowest median BMD, >5 genes passing all filters",HepG2 cells [2]; [4],30.0 µM
same,BMD relating to estrogen effects,"HepG2 cells [2]; HepG2, 24 h, pathway named in the cell",None
same,"BMD/NOEC, gene pathway deregulation",HepG2 cells [2]; HepG2 cells,16.2 µM
same,"BMD/NOEC, gene pathway deregulation",HepaRG cells; HepaRG cells,33.1 µM
same,"Lowest median BMD, 3 genes passing all filters",HepaRG cells; [5],33.1 µM
same,"Lowest median BMD, >5 genes passing all filters",HepaRG cells; [5],39.3 µM
same,BMD relating to estrogen effects,"HepaRG cells; HepaRG, 24 h, pathway named in the cell",None
same,Metabolized in the skin after 24 h,[3],55%
same,"Thyroid pathway: Reporter protein Agonist, Call",Thyroid pathway,Neg
same,"Thyroid pathway: Reporter protein Antagonist, Call",Thyroid pathway,Neg
same,"Thyroid pathway: mRNA induction, Call",Thyroid pathway,Neg
same,"Thyroid pathway: Regulation of transcription factor activity (TSHR), Call",TSHR,Neg
same,"Thyroid pathway: Thyroid peroxidase, Call",Thyroid peroxidase,Pos
same,AC50,"Thyroid peroxidase; read-out: Thyroid pathway: Thyroid peroxidase, AC50",10.2 µM
same,"Thyroid pathway: Deiodinase (Not AOP), Call",Deiodinase,Pos
same,AC50,"Deiodinase; read-out: Thyroid pathway: Deiodinase (Not AOP), AC50",17.2 µM
